The record followed here is paper PMC7996082, “The translocator protein ligands as mitochondrial functional modulators for the potential anti-Alzheimer agents” (Journal of Enzyme Inhibition and Medicinal Chemistry, 2021).

The term viability denotes a read-out of living cells in per cent, often relative to untreated cells.

Each structure is given as a SMILES string.

This data set can be described thus: MTT assay: HT22 cell viability with compound alone. In kind it is cell-based, mouse. The note with it: mouse, HT22 cells; HT22 cell viability after 24 h of treatment with 5 μM compound, no Aβ. On the procedure: To a clear 96-well plate (FALCON), the cultured HT-22 cells were seeded in a number of 5,000 per well 24 h prior to the assay. A solution of each test compound (5 µM, 25 µL) was added to each well. After 24 h of incubation at 37 °C, the cells were treated with a 10 µL of MTT solution (3–(4,5-dimethylthiazol-2-yl)-2,5-diphenyltetrazolium bromide, Sigma-Aldrich), incubated for 2 h at 37 °C, and were treated with 135 µL of MTT solubilising solution (10% Triton-X 100 in isopropanol with 0.1 M HCl) for 2 h at 37 °C. The % values of cell viability were determined by using the optical density (OD) values at 560 nm, and normalised by taking the vehicle control (5 µM of DMSO) as […].
For orientation: Formazan colour is commonly taken as a measure of viable cells.
As for `COc1ccc(-n2c(SCC(=O)Nc3ccc(F)c(F)c3)nc3sc4c(c3c2=O)CCN(C(C)=O)C4)cc1` [Compound 27], the viability at 24 h, 5 µM came out at 92%.

In the case of `CCOc1ccc(-n2c(SCC(=O)NCCN3CCCCC3)nc3sc4c(c3c2=O)CCN(C(C)=O)C4)cc1` [Compound 28], the viability at 24 h, 5 µM amounted to 71%.

Consider `CCOc1ccc(-n2c(SCC(=O)N(CC)CC)nc3sc4c(c3c2=O)CCN(C(C)=O)C4)cc1` [Compound 38], for which the viability at 24 h, 5 µM worked out at 77%.

In the case of `CCCCNC(=O)CSc1nc2sc3c(c2c(=O)n1-c1ccc(OCC)cc1)CCN(C(C)=O)C3` [Compound 43], the viability at 24 h, 5 µM was determined as 79%.

For the compound `CCOc1ccc(-n2c(SCC(=O)Nc3ccc(Cl)cc3)nc3sc4c(c3c2=O)CCN(C)C4)cc1` [Compound 53], the viability at 24 h, 5 µM was 89%.

Consider `CCOc1ccc(-n2c(SCC(=O)NCc3ccc(C)cc3)nc3sc4c(c3c2=O)CCN(C)C4)cc1` [Compound 54], for which the viability at 24 h, 5 µM is 107%.

Regarding `CCCCN(CCCC)C(=O)CSc1nc2sc3c(c2c(=O)n1-c1ccc(OCC)cc1)CCN(C)C3` [Compound 57], the viability at 24 h, 5 µM was 110%.

As to `CCn1c(SCC(=O)Nc2ccc(OC)c(OC)c2)nc2sc3c(c2c1=O)CCN(C(C)=O)C3` [Compound 58], the viability at 24 h, 5 µM is 99%.

Regarding `CCCn1c(SCC(=O)Nc2ccc(OC)c(OC)c2)nc2sc3c(c2c1=O)CCN(C(C)=O)C3` [Compound 59], the viability at 24 h, 5 µM worked out at 112%.

Regarding `COc1ccc(NC(=O)CSc2nc3sc4c(c3c(=O)n2CC(C)C)CCN(C(C)=O)C4)cc1OC` [Compound 60], the viability at 24 h, 5 µM came to 96%.

Turning to `CCCCn1c(SCC(=O)Nc2ccc(OC)c(OC)c2)nc2sc3c(c2c1=O)CCN(C(C)=O)C3` [Compound 61], the viability at 24 h, 5 µM was 97%.

In the case of `COc1ccc(NC(=O)CSc2nc3sc4c(c3c(=O)n2C(C)C)CCN(C(C)=O)C4)cc1OC` [Compound 62], the viability at 24 h, 5 µM came out at 94%.
